# Where two headings read alike, the source gives them in different places.
# What was measured:
# newborn rats = details: acute subcutaneous; cited from earlier work
# rat = details: intravenous; cited from earlier work
# [1] = Safety of intranasal naloxone: nasal irritation, vital signs, ECG, clinical laboratory (Study 1); assay type: in vivo, human
# Method: These vital signs and temperature were also measured at screening, clinic intake, one day after each dosing session and at follow-up. […] AEs were recorded from the start of study-drug administration until clinic discharge. […] Clinical laboratory measurements were done prior to the first drug administration and on the day of clinic release.
# Statistical Analysis of Adverse Events: AEs were coded using the Medical Dictionary for Regulatory Activities (MedDRA), version 19. Preferred terms and are grouped by system, organ, class (SOC) designation. AEs are presented as a listing including the start date, stop date, severity, relationship, outcome, and duration.
# [2] = for Lambda z: harmonic mean; for Tmax: median; for λz: geometric mean (CV %)
# [3] = for Cmax/D: GLSM, dose adjustment to 0.4 mg; for λz / Frel: mean
# clinical = details: human, plasma; for AUC(0-t): AUC0-t; for AUC(0-t) / AUC(0-inf) / Cmax: geometric mean (CV %); for AUC(0-inf): AUC0-∞; for Tmax: Table 13
# [4] = Safety of intranasal naloxone: adverse events, nasal irritation, vital signs, ECG (Study 2)
# mouse = details: intravenous; cited from earlier work
# [5] = im, 0.4 mg, One Injection 0.4 mg IM
# [6] = other: intranasal (IN), 2 mg, One Spray 2% (w/v) IN
# [7] = other: intranasal (IN), 4 mg, One Spray 4% (w/v) IN
# [8] = other: intranasal, 2 mg, One Spray 2% (w/v) IN
# [9] = other: intranasal, 4 mg, One Spray 4% (w/v) IN
# [10] = other: intranasal, 4 mg, Two Sprays 2% (w/v) IN
# [11] = other: intranasal, 8 mg, Two Sprays 4% (w/v) IN
smiles,measurement,setting,value
"C=CCN1CC[C@]23c4c5ccc(O)c4O[C@H]2C(=O)CC[C@@]3(O)[C@H]1C5 [naloxone, 17-allyl-4,5α-epoxy-3,14-dihydroxymorphinan-6-one]",LD50 (95% CL),newborn rats,260 (228-296) mg/kg
same,LD50,rat,109 ± 4 mg/kg
same,pharyngeal pain,[1]; 2 mg IN dose,One subject experienced mild transient (over 3 min) pharyngeal pain
same,"nasal irritation (erythema, edema, erosion) in the nasal cavity",[1]; IN 2 and 4 mg to both nostrils,"No erythema, edema, erosion, or other sign was observed"
same,QTcF prolongation,[1]; Study 1,no evidence of QTcF prolongation
same,"vital signs, ECG, and clinical laboratory parameters","[1]; after naloxone administration, Study 1",did not reveal any clinically noteworthy changes
same,Lambda z,"[2]; 0.4 mg IM, Female",0.6140 h⁻¹
same,Lambda z,"[2]; 0.4 mg IM, Male",0.5152 h⁻¹
same,Tmax,"[2]; 0.4 mg IM, Male",30 min
same,Lambda z,[2]; 0.4 mg IM,0.5534 h⁻¹
same,Lambda z,"[2]; One 2% (w/v) IN, Female",0.3978 h⁻¹
same,Lambda z,"[2]; One 2% (w/v) IN, Male",0.3492 h⁻¹
same,Lambda z,"[2]; One 4% (w/v) IN, Female",0.2946 h⁻¹
same,Tmax,"[2]; One 4% (w/v) IN, Female",30 min
same,Lambda z,"[2]; One 4% (w/v) IN, Male",0.3386 h⁻¹
same,Tmax,"[2]; One 4% (w/v) IN, Male",30 min
same,λz,[2]; One Injection 0.4 mg IM,0.557 (25.9) 1/h
same,λz,[2]; One Spray 2% (w/v) IN,0.382 (34.9) 1/h
same,λz,[2]; One Spray 4% (w/v) IN,0.334 (29.5) 1/h
same,Lambda z,"[2]; Two 2% (w/v) IN, Female",0.2796 h⁻¹
same,Lambda z,"[2]; Two 2% (w/v) IN, Male",0.3122 h⁻¹
same,Lambda z,"[2]; Two 4% (w/v) IN, Female",0.2994 h⁻¹
same,Lambda z,"[2]; Two 4% (w/v) IN, Male",0.3407 h⁻¹
same,λz,[2]; Two Sprays 2% (w/v) IN,0.310 (34.5) 1/h
same,λz,[2]; Two Sprays 4% (w/v) IN,0.330 (32.4) 1/h
same,Lambda z,[2]; one spray 2 mg 2% (w/v) IN,0.3685 h⁻¹
same,Lambda z,[2]; two sprays 4 mg 2% (w/v) IN,0.2973 h⁻¹
same,Lambda z,[2]; two sprays 8 mg 4% (w/v) IN,0.3217 h⁻¹
same,Cmax/D,[3]; 0.4 mg IM,0.755 ng/mL
same,λz,[3]; 0.4 mg IM,0.593 h⁻¹
same,Frel,[3]; 2 mg IN vs IM,0.571
same,Cmax/D,[3]; 2 mg IN,0.510 ng/mL
same,λz,[3]; 2 mg IN,0.588 h⁻¹
same,Frel,[3]; 4 mg IN vs IM,0.475
same,Cmax/D,[3]; 4 mg IN,0.466 ng/mL
same,λz,[3]; 4 mg IN,8.0 h⁻¹
same,AUC(0-t),clinical; [5],1.72 ng·h/mL
same,AUC(0-inf),clinical; [5],1.76 ng·h/mL
same,Cmax,clinical; [5],0.877 ng/mL
same,Tmax,clinical; [5],22.8 min
same,AUC(0-t),clinical; [6],4.51 ng·h/mL
same,AUC(0-inf),clinical; [6],4.56 ng·h/mL
same,AUC(0-t),clinical; [7],7.87 ng·h/mL
same,AUC(0-inf),clinical; [7],7.95 ng·h/mL
same,AUC(0-inf),"clinical; other: intranasal (IN), 8 mg, Two Sprays 4% (w/v) IN",15.5 ng·h/mL
same,Cmax,clinical; [8],2.92 ng/mL
same,Tmax,clinical; [8],19.8 min
same,Cmax,clinical; [9],4.83 ng/mL
same,Cmax,clinical; [10],6.2 ng/mL
same,Tmax,clinical; [9],30 min
same,Tmax,clinical; [10],19.8 min
same,Cmax,clinical; [11],9.7 ng/mL
same,Tmax,clinical; [11],19.8 min
same,adverse events: Dizziness,[4]; 0.4 mg Intramuscular Dose,1
same,adverse events: Headache,[4]; 0.4 mg Intramuscular Dose,1
same,adverse events: Nausea,[4]; 0.4 mg Intramuscular Dose,1
same,Events related to nasal irritation: Edema,"[4]; 2 mg (2% w/v, one spray)",2
same,Events related to nasal irritation: Erythema,"[4]; 2 mg (2% w/v, one spray)",4
same,Events related to nasal irritation: Other,"[4]; 2 mg (2% w/v, one spray)",1
same,Events related to nasal irritation: Total,"[4]; 2 mg (2% w/v, one spray)",7
same,adverse events: Nasal Pain,"[4]; 2 mg (2% w/v, one spray)",1
same,Events related to nasal irritation: Edema,"[4]; 4 mg (2% w/v, two sprays)",0
same,Events related to nasal irritation: Erythema,"[4]; 4 mg (2% w/v, two sprays)",1
same,Events related to nasal irritation: Other,"[4]; 4 mg (2% w/v, two sprays)",0
same,Events related to nasal irritation: Total,"[4]; 4 mg (2% w/v, two sprays)",1
same,Events related to nasal irritation: Edema,"[4]; 4 mg (4% w/v, one spray)",2
same,Events related to nasal irritation: Erythema,"[4]; 4 mg (4% w/v, one spray)",1
same,Events related to nasal irritation: Other,"[4]; 4 mg (4% w/v, one spray)",0
same,Events related to nasal irritation: Total,"[4]; 4 mg (4% w/v, one spray)",3
same,Events related to nasal irritation: Edema,"[4]; 8 mg (4% w/v, two sprays)",1
same,Events related to nasal irritation: Erythema,"[4]; 8 mg (4% w/v, two sprays)",0
same,Events related to nasal irritation: Other,"[4]; 8 mg (4% w/v, two sprays)",0
same,Events related to nasal irritation: Total,"[4]; 8 mg (4% w/v, two sprays)",1
same,adverse events: Headache,"[4]; 8 mg (4% w/v, two sprays)",1
same,relation of nasal irritation to dose,[4]; IN 2 to 8 mg,did not appear to be positively related to the dose
same,QTcF prolongation,[4]; Study 2,no evidence of QTcF prolongation
same,"vital signs, ECG, and clinical laboratory parameters","[4]; after naloxone administration, Study 2",did not reveal any clinically noteworthy changes
same,LD50,mouse,150 ± 5 mg/kg
